From patent US20030145348A1, “Dehydroquinate dehydrase/shikimate dehydrogenase as a herbicide target” (priority 2000, published 2003)
pIC50: −log10 of the molar value.

Tests used:
[1] = tested on: shikimate dehydrogenase; conditions: cited from earlier work
[2] = biological target: dehydroquinate dehydratase/shikimate dehydrogenase (Nicotiana tabacum, UniProt Q6PUF9); assay: shikimate dehydrogenase activity assay of Example 5A (NADPH formation, OD 334 nm); type: biochemical; conditions: 0.1 mM shikimate, 0.1 mM NADP, pH 9.9
Procedure: A. The shikimate dehydrogenase of the bifunctional dehydroquinate dehydratase/shikimate dehydrogenase enzyme catalyzes the following reaction:
shikimate+NADP ? dehydroshikimate+NADPH
The formation of NADPH can be measured over 10 minutes at an OD of 334 nm. The reaction is started by adding 1 microliter of the extracted crude protein. The reaction buffer contains:
100 mM glycine-NaOH, pH: 9.9;
0.1 mM shikimate (Sigma);
The full-length dehydroquinate dehydratase/shikimate dehydrogenase gene was cloned into the pQE vector (FIG. 7) and transformed into E. coli. A single colony of this E. coli strain was incubated overnight at 37° C. in the growth medium “2xYT” (per liter: Bacto tryptone 16 g, yeast extract 10 g, NaCl 5 g, 50 mg/l ampicillin and 50 mg/l kanamycin). Next day, 50 ml of 2*YT were inoculated with 0.5 ml of the overnight culture and grown at 25° C. to an OD600 of 0.6. Gene expression was induced by addition of IPTG (final concentration: 0.05 mM) and incubation was continued for 3 hours at 25° C. The cells were harvested at 4° C. by centrifugation for 10 minutes at 8000 rpm. The pellet was taken up in 3 ml of extraction buffer (50 mM NaH2PO4, 300 mM NaCl, 10 mM imidazole, 15% glycerol, 5 mM mercaptoethanol). The pellet was frozen in liquid nitrogen and again defrosted on ice. The cells were disrupted by sonication (4×45 seconds, 1 minute on ice). The cells were spun down for 20 minutes at 4° C. and 1500 rpm, and the supernatent was used directly for the enzyme measurements.
Six substances whose IC50 value is in the μM range were identified in a comprehensive screening based on the activity assay described in Example 5A (see Table 1).

[3] = tested on: duckweed Lemna paucicostatag; assay: Lemna test, chlorophyll fluorescence; type: in vivo, Lemna minor; design: key: A herbicidal effect can be detected by comparison with an untreated control; it is identified in Table 1 by the symbol H; conditions: chlorophyll fluorescence vs untreated control; 5 mmol/l in DMSO diluted 1:5 in water, 25 μl in 0.5 ml nutrient solution
Procedure: The effect of the herbicidal compounds according to the invention on the growth of the duckweed Lemna paucicostatag is evident from the following test results:
Lemna minor was grown under nonsterile conditions in Petri dishes in 17 mmol/l MES buffer pH 5.5+1.5 mmol/l CaCl—2+1 g/l “Hakaphos spezial”.
To carry out the test, the Lemna cultures are washed and singled out into 0.5 ml of fresh nutrient solution in 48-well microtiter plates. The active ingredients are dissolved in DMSO at a concentration of 5 mmol/l and diluted 1:5 in water. 25 μl of this solution are used in the test.
The parameter measured is the fluorescence of the chlorophyll during the treatment. A herbicidal effect can be detected by comparison with an untreated control; it is identified in Table 1 by the symbol H.

[4] = biological target: T1, dehydroquinate dehydratase (Escherichia coli, UniProt P05194); conditions: in Escherichia coli; cited from earlier work
T1 sequence (P05194 1-252): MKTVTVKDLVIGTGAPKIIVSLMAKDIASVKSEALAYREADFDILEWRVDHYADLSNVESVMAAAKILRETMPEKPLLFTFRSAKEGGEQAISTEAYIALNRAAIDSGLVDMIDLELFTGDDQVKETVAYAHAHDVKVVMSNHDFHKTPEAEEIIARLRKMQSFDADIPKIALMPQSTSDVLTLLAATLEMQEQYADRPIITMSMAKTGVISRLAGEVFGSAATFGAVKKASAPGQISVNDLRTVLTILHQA

dehydroquinate dehydratase/shikimate dehydrogenase, sequence (Q6PUF9 entry or part of it): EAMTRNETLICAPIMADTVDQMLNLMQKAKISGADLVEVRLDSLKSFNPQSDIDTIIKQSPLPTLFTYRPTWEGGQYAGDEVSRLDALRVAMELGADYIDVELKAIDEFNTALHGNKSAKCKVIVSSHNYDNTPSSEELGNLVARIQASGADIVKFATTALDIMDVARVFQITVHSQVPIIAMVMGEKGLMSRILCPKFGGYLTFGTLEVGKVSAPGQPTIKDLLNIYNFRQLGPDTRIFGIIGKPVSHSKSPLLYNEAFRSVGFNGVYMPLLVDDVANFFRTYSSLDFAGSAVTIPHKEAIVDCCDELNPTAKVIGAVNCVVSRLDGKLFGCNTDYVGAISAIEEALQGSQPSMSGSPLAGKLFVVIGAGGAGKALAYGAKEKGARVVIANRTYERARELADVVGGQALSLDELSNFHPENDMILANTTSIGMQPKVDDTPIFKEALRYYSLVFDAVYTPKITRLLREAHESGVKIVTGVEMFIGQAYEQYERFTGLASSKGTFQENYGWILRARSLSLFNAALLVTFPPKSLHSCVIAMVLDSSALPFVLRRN

p-chloromercuribenzoates
inhibitory effect on shikimate dehydrogenase [1]: inhibitory effect

O=C(NNC(=O)c1sc2ccccc2c1Cl)Nc1cccc(Cl)c1 [No. 2]
pIC50 [2]: 4.64 | Effect (herbicidal effect on growth of Lemna) [3]: H

[Hg+2] [Hg^2+]
inhibitory effect on shikimate dehydrogenase [1]: inhibitory effect

O=S(=O)([O-])[O-].[Cd+2] [CdSO4]
inhibitory effect on shikimate dehydrogenase [1]: inhibitory effect

berates
inhibitory effect on shikimate dehydrogenase [1]: inhibitory effect

arsenites
inhibitory effect on shikimate dehydrogenase [1]: inhibitory effect

diethylcarbonates
inhibitory effect on dehydroquinate dehydratase [4]: inhibitory effect

acetates
inhibitory effect on dehydroquinate dehydratase [4]: inhibitory effect

[Zn+2] [Zn^2+]
inhibitory effect on shikimate dehydrogenase [1]: inhibitory effect

[Cu+2] [Cu^2+]
inhibitory effect on shikimate dehydrogenase [1]: inhibitory effect

O=S(=O)([O-])[O-].[Cu+2] [CuSO4]
inhibitory effect on shikimate dehydrogenase [1]: inhibitory effect

[Cl][Hg][Cl] [HgCl2]
inhibitory effect on shikimate dehydrogenase [1]: inhibitory effect

succinates
inhibitory effect on dehydroquinate dehydratase [4]: inhibitory effect

COc1cc(C(=S)N[C@H]2CC[C@@H](C(C)(C)C)CC2)ccc1OC(C)=O [No. 6]
pIC50 [2]: 4.96 | Effect (herbicidal effect on growth of Lemna) [3]: H

O=C(Nc1c(Cl)cc(Cl)cc1Cl)c1cccc(O)c1O [No. 5]
pIC50 [2]: 5.52 | Effect (herbicidal effect on growth of Lemna) [3]: H

CCN1C(=O)C=CC1=O [N-ethylmaleimides]
inhibitory effect on shikimate dehydrogenase [1]: inhibitory effect

CC(=N\O)/C(=N/Nc1ccc(S(C)(=O)=O)cc1)c1ccc(Cl)cc1 [No. 3]
pIC50 [2]: 5.15 | Effect (herbicidal effect on growth of Lemna) [3]: H

[Cl-].[Cl-].[Zn+2] [ZnCl2]
inhibitory effect on shikimate dehydrogenase [1]: inhibitory effect

O=c1[nH]c2ccccc2c(=O)n1CCN1CC2C[C@@H](c3cccc(Cl)c3)C2C1 (stereo partly shown) [No. 1]
pIC50 [2]: 4.70 | Effect (herbicidal effect on growth of Lemna) [3]: H

D-(+)-tartrates
inhibitory effect on dehydroquinate dehydratase [4]: inhibitory effect
